Several values for one entry are separate records, joined by “and”; a condition that tells them apart may be missing. Equal entries are not always repeated. Inconclusive results and toxic doses are left out.
Test system: L1210 leukemia ip in BDF1 mice, survival T/C
Test: NCI In Vivo Anticancer Drug Screen. Data for tumor model L1210 Leukemia (intraperitoneal) in B6D2F1 (BDF1) mice
Settings: endpoint: mean survival time, higher = longer survival
Outline: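 Read-out is survival time, reported as the treated-group measurement over the vehicle-control measurement.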

[1] = dose: 100.0 mg/kg/injection, schedule: Q04DX002 (ip), vehicle: Klucel (hydroxypropylcellulose) (HPC)
[2] = dose: 200.0 mg/kg/injection, schedule: Q04DX002 (ip), vehicle: Klucel (hydroxypropylcellulose) (HPC)
[3] = dose: 400.0 mg/kg/injection, schedule: Q04DX002 (ip), vehicle: Klucel (hydroxypropylcellulose) (HPC)
[4] = dose: 100.0 mg/kg/injection, schedule: Q01DX009 (ip), vehicle: saline with Tween-80
[5] = dose: 100.0 mg/kg/injection, schedule: Q01DX001 (ip), vehicle: saline
[6] = dose: 200.0 mg/kg/injection, schedule: Q01DX001 (ip), vehicle: saline
[7] = dose: 400.0 mg/kg/injection, schedule: Q01DX001 (ip), vehicle: saline
[8] = dose: 100.0 mg/kg/injection, schedule: Q01DX009 (ip), vehicle: Klucel (hydroxypropylcellulose) (HPC)
[9] = dose: 200.0 mg/kg/injection, schedule: Q01DX009 (ip), vehicle: Klucel (hydroxypropylcellulose) (HPC)
[10] = dose: 75.0 mg/kg/injection, schedule: Q01DX001 (ip), vehicle: other
[11] = dose: 150.0 mg/kg/injection, schedule: Q01DX001 (ip), vehicle: other
[12] = dose: 300.0 mg/kg/injection, schedule: Q01DX001 (ip), vehicle: other
[13] = dose: 50.0 mg/kg/injection, schedule: Q01DX001 (ip), vehicle: saline
[14] = dose: 100.0 mg/kg/injection, schedule: Q04DX003 (ip), vehicle: saline
[15] = dose: 200.0 mg/kg/injection, schedule: Q04DX003 (ip), vehicle: saline
[16] = dose: 400.0 mg/kg/injection, schedule: Q04DX003 (ip), vehicle: saline
[17] = dose: 200.0 mg/kg/injection, schedule: Q01DX009 (ip), vehicle: saline with Tween-80
[18] = dose: 400.0 mg/kg/injection, schedule: Q01DX009 (ip), vehicle: saline with Tween-80

N/C(=N\c1nc(-c2ccccc2)cc(-c2ccccc2O)n1)N1CCOCC1
T/C [1]: 98 % of control | T/C [2]: 98 % of control | T/C [3]: 95 % of control

CCOC(=O)NC(NC(=O)OCC)C(NC(=O)OCC)NC(=O)OCC
T/C (dose: 100.0 mg/kg/injection, schedule: Q01DX001 (ip), vehicle: carboxymethylcellulose (CMC)): 87 % of control | T/C (dose: 200.0 mg/kg/injection, schedule: Q01DX001 (ip), vehicle: carboxymethylcellulose (CMC)): 91 % of control | T/C (dose: 400.0 mg/kg/injection, schedule: Q01DX001 (ip), vehicle: carboxymethylcellulose (CMC)): 91 % of control

CC1(C)N=C(N)N=C(N)N1c1cccc(OCCOc2cccc(NC(=O)CBr)c2)c1
T/C (dose: 5.0 mg/kg/injection, schedule: Q01DX001 (ip), vehicle: saline): 98 % of control | T/C (dose: 10.0 mg/kg/injection, schedule: Q01DX001 (ip), vehicle: saline): 102 % of control | T/C (dose: 10.0 mg/kg/injection, schedule: Q01DX009 (ip), vehicle: other): 105 % of control | T/C (dose: 20.0 mg/kg/injection, schedule: Q01DX001 (ip), vehicle: saline): 93 % of control | T/C (dose: 20.0 mg/kg/injection, schedule: Q01DX009 (ip), vehicle: other): 98 % of control | T/C (dose: 40.0 mg/kg/injection, schedule: Q01DX001 (ip), vehicle: saline): 96 % of control

Cc1cc(N(CCCCl)CCCCl)ccc1C=Nc1cccc(Cl)c1
T/C (dose: 100.0 mg/kg/injection, schedule: Q04DX003 (ip), vehicle: Klucel (hydroxypropylcellulose) (HPC)): 101 % of control | T/C (dose: 200.0 mg/kg/injection, schedule: Q04DX003 (ip), vehicle: Klucel (hydroxypropylcellulose) (HPC)): 101 % of control | T/C (dose: 400.0 mg/kg/injection, schedule: Q04DX003 (ip), vehicle: Klucel (hydroxypropylcellulose) (HPC)): 96 % of control

CN1CC(C(=O)NC(C)(C)C)CC(c2ccccc2)C1 (centres undefined)
T/C (dose: 6.25 mg/kg/injection, schedule: Q01DX009 (ip), vehicle: saline): 91 % of control | T/C (dose: 12.5 mg/kg/injection, schedule: Q01DX009 (ip), vehicle: saline): 86 % of control | T/C (dose: 25.0 mg/kg/injection, schedule: Q01DX009 (ip), vehicle: saline): 86 % of control

N#CCCSc1ccccc1
T/C (dose: 25.0 mg/kg/injection, schedule: Q01DX009 (ip), vehicle: saline with Tween-80): 112 % of control | T/C (dose: 50.0 mg/kg/injection, schedule: Q01DX009 (ip), vehicle: saline with Tween-80): 91 % of control | T/C [4]: 100 % of control and 105 % of control | T/C (dose: 100.0 mg/kg/injection, schedule: Q04DX002 (ip), vehicle: saline with Tween-80): 86 % of control | T/C (dose: 200.0 mg/kg/injection, schedule: Q04DX002 (ip), vehicle: saline with Tween-80): 100 % of control

O=C(O)CN1C(=O)C2C3CCC(C3)C2C1=O (centres undefined)
T/C (dose: 100.0 mg/kg/injection, schedule: Q04DX003 (ip), vehicle: saline with Tween-80): 97 % of control | T/C (dose: 200.0 mg/kg/injection, schedule: Q04DX003 (ip), vehicle: saline with Tween-80): 97 % of control | T/C (dose: 400.0 mg/kg/injection, schedule: Q04DX003 (ip), vehicle: saline with Tween-80): 94 % of control

CP1(=O)CCC=C1C(=O)O (centres undefined)
T/C [5]: 95 % of control | T/C [6]: 95 % of control | T/C [7]: 95 % of control

N#Cc1ccc(O)cc1
T/C (dose: 100.0 mg/kg/injection, schedule: Q01DX005 (ip), vehicle: Klucel (hydroxypropylcellulose) (HPC)): 105 % of control | T/C [8]: 99 % of control | T/C [1]: 106 % of control | T/C (dose: 200.0 mg/kg/injection, schedule: Q01DX005 (ip), vehicle: Klucel (hydroxypropylcellulose) (HPC)): 105 % of control | T/C [9]: 96 % of control | T/C [2]: 117 % of control | T/C (dose: 400.0 mg/kg/injection, schedule: Q01DX005 (ip), vehicle: Klucel (hydroxypropylcellulose) (HPC)): 108 % of control | T/C [3]: 87 % of control

CNCCCCOC
T/C (dose: 100.0 mg/kg/injection, schedule: Q04DX002 (ip), vehicle: saline): 117 % of control | T/C (dose: 200.0 mg/kg/injection, schedule: Q04DX002 (ip), vehicle: saline): 104 % of control

[Cu+2].[Cu+2].[O-]CCCN=Cc1ccccc1[O-].[O-]CCCN=Cc1ccccc1[O-]
T/C [10]: 97 % of control | T/C [11]: 111 % of control | T/C [12]: 102 % of control

CC[C@@]1(O)c2cc3n(c(=O)c2CO[C@H]1O)Cc1cc2ccccc2nc1-3
T/C (dose: 0.5 mg/kg/injection, schedule: Q01DX Z (ip), vehicle: saline): 96 % of control | T/C (dose: 1.0 mg/kg/injection, schedule: Q01DX Z (ip), vehicle: saline): 94 % of control | T/C (dose: 2.0 mg/kg/injection, schedule: Q01DX Z (ip), vehicle: saline): 97 % of control | T/C (dose: 4.0 mg/kg/injection, schedule: Q01DX015 (ip), vehicle: saline): 104 % of control | T/C (dose: 4.0 mg/kg/injection, schedule: Q01DX Z (ip), vehicle: saline): 97 % of control | T/C (dose: 8.0 mg/kg/injection, schedule: Q01DX007 (ip), vehicle: other): 108 % of control | T/C (dose: 8.0 mg/kg/injection, schedule: Q01DX012 (ip), vehicle: saline): 95 % of control | T/C (dose: 8.0 mg/kg/injection, schedule: Q01DX015 (ip), vehicle: saline): 106 % of control | T/C (dose: 16.0 mg/kg/injection, schedule: Q01DX007 (ip), vehicle: other): 112 % of control | T/C (dose: 16.0 mg/kg/injection, schedule: Q01DX012 (ip), vehicle: saline): 108 % of control | T/C (dose: 16.0 mg/kg/injection, schedule: Q01DX015 (ip), vehicle: saline): 150 % of control

Cn1cnc2cc(N=Cc3ccc(N(CCCl)CCCl)cc3Cl)ccc21
T/C [1]: 108 % of control | T/C [2]: 101 % of control | T/C [3]: 101 % of control

O=C(/C=C/C(=O)c1ccc(-c2ccccc2)cc1)c1ccc(-c2ccccc2)cc1
T/C (dose: 50.0 mg/kg/injection, schedule: Q01DX009 (ip), vehicle: Klucel (hydroxypropylcellulose) (HPC)): 92 % of control | T/C [8]: 87 % of control | T/C [9]: 90 % of control | T/C (dose: 400.0 mg/kg/injection, schedule: Q01DX009 (ip), vehicle: Klucel (hydroxypropylcellulose) (HPC)): 87 % of control

CCCCCCCCC1OC1CCCCCCCC(=O)O (centres undefined)
T/C (dose: 25.0 mg/kg/injection, schedule: Q04DX002 (ip), vehicle: Klucel (hydroxypropylcellulose) (HPC)): 108 % of control | T/C [13]: 90 % of control | T/C (dose: 50.0 mg/kg/injection, schedule: Q04DX002 (ip), vehicle: Klucel (hydroxypropylcellulose) (HPC)): 101 % of control | T/C [5]: 97 % of control | T/C [1]: 101 % of control | T/C [6]: 101 % of control | T/C [7]: 90 % of control

Nc1ccc(/C=C\C2(CCl)OCCO2)cc1
T/C [13]: 100 % of control | T/C [5]: 97 % of control | T/C [6]: 103 % of control | T/C [7]: 94 % of control

c1ccc(-c2cnc3nc4ccccc4nc3n2)cc1
T/C [10]: 87 % of control | T/C [11]: 91 % of control | T/C [12]: 97 % of control

ClC(C[n+]1ccccc1)c1ccccc1 (centres undefined)
T/C [5]: 100 % of control

CCOC(=O)c1ccc(=O)n(C)c1
T/C (dose: 100.0 mg/kg/injection, schedule: Q01DX009 (ip), vehicle: saline): 102 % of control | T/C (dose: 200.0 mg/kg/injection, schedule: Q01DX009 (ip), vehicle: saline): 96 % of control | T/C (dose: 400.0 mg/kg/injection, schedule: Q01DX009 (ip), vehicle: saline): 98 % of control

CC(C)C1(C(=O)O)SCCCS1
T/C (dose: 50.0 mg/kg/injection, schedule: Q04DX003 (ip), vehicle: saline): 100 % of control | T/C [14]: 110 % of control | T/C [15]: 102 % of control | T/C [16]: 98 % of control

CCCC(C)C(=O)Nc1cccc(OC(=O)NC(C)(C)C)c1 (centres undefined)
T/C [4]: 92 % of control | T/C [17]: 89 % of control | T/C [18]: 87 % of control

CCO/C(C)=N/c1n[n+]([O-])ccc1C
T/C (dose: 40.0 mg/kg/injection, schedule: Q04DX002 (ip), vehicle: saline): 104 % of control | T/C (dose: 80.0 mg/kg/injection, schedule: Q04DX002 (ip), vehicle: saline): 96 % of control | T/C (dose: 160.0 mg/kg/injection, schedule: Q04DX002 (ip), vehicle: saline): 104 % of control

CCC(=O)C(CC)c1ccccc1OC (centres undefined)
T/C [4]: 95 % of control | T/C [14]: 94 % of control | T/C [17]: 95 % of control | T/C [15]: 97 % of control | T/C [18]: 108 % of control | T/C [16]: 97 % of control
